Data taken from patent US8354414B2, “Substituted bicyclic pyrimidines” (Cephalon, Inc, priority 2006, dated 2013).
Counter-ions that a name gives are not always drawn. Like-named read-outs stand apart in the source and are kept apart here.

Experiments:
CDK5/GST-p25 = molecular target: T1, CDK5/GST-p25 (Homo sapiens, UniProt Q00535); assay: Inhibition of CDK5/GST-p25 kinase activity (ELISA with time-resolved fluorescence readout); format: biochemical
T1 construct: The final construct, encoding for full-length human CDK5; made in house; host or cells: Sf21 insect cells (baculovirus co-infection)
Summary of the method: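 The substrate, GST-Rb(773-928), was immobilised on plates and phosphorylated for 20 min at 37 °C by 2 ng/ml CDK5/GST-p25 in HEPES pH 7.2 with 10 µM ATP and 10 mM MgCl2. Both proteins were human and co-expressed in insect cells. Ser-780 phosphorylation was read by europium time-resolved fluorescence and converted to IC50.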

His6-GSK-3β = molecular target: T2, His6-GSK-3β (Homo sapiens, UniProt P49841); assay: Inhibition of His6-GSK-3β kinase activity (ELISA-based format, time-resolved fluorescence readout); format: biochemical; settings: read-out: GSK3β IC50
T2 construct: made in house; host or cells: Sf21 insect cells (baculovirus)
Summary of the method: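 Plate-bound recombinant GST-Rb substrate was phosphorylated for 30 min at 37° C by baculovirus-expressed His6-GSK-3β (200 ng/ml) at 20 μM ATP, 10 mM MgCl2, 2.5% DMSO. Europium time-resolved fluorescence of anti-phospho-Ser780 Rb signal gave inhibition, fitted to IC50.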

T2 sequence (P49841 2-419): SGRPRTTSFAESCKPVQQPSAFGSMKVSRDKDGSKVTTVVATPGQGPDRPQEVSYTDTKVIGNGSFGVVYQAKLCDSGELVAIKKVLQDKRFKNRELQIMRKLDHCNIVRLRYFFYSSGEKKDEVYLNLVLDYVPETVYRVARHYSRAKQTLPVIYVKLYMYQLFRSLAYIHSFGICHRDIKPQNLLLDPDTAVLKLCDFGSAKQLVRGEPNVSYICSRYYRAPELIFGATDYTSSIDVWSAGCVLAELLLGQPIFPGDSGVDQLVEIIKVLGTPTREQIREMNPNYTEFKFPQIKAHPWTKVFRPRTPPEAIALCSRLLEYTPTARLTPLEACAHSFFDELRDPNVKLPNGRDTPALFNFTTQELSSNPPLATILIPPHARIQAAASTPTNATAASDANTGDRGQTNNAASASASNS
T1 sequence (Q00535 whole entry): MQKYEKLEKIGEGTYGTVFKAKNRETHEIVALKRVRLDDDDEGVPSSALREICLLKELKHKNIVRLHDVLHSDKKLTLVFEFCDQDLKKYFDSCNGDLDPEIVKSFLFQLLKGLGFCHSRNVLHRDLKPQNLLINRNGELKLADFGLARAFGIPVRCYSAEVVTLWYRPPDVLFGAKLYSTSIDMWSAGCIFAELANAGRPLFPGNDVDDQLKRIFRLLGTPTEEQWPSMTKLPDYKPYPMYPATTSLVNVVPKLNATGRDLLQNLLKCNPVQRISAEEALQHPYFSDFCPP
T1 sequence (Q15078 108-307 partner limits assumed): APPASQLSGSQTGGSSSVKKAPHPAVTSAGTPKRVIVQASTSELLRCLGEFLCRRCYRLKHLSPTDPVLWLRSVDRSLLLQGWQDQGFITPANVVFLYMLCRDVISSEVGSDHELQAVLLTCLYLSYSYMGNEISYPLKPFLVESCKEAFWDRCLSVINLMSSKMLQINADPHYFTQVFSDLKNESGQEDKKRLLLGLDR

SMILES	melting point	IC50 (CDK5/GST-p25; class symbols) [nM]	IC50 (His6-GSK-3β; class symbols) [nM]	also measured
CNCCCNc1nc(C2C(=O)Nc3ccc(C(F)(F)F)cc32)c2cn(C3CCCC3)nc2n1 (stereo not shown) (as salt: hydrochloride) [Example 253, 3-[2-Cyclopentyl-6-(3-methylamino-propylamino)-2H-pyrazolo [3,4-d]pyrimidin-4-yl]-5-trifluoromethyl-1,3-dihydro-indol-2-one hydrochloride salt]	260 to 262 °C			
CNCCCNc1nc(C2C(=O)Nc3ccc(Br)cc32)c2cn(C)nc2n1 (stereo not shown) (as salt: hydrochloride) [Example 306, 5-Bromo-3-[2-methyl-6-(3-methylamino-propylamino)-2H-pyrazolo [3,4-d]pyrimidin-4-yl]-1,3-dihydro-indol-2-one]	271 to 273 °C			
COCCn1cc2c(C3C(=O)Nc4ccc(Br)cc43)nc(NCCC3CCCNC3)nc2n1 (stereo not shown) (as salt: hydrochloride) [Example 228, 5-Bromo-3-[2-(2-methoxy-ethyl)-6-(2-piperidin-3-yl-ethylamino)-2H-pyrazolo[3,4-d]pyrimidin-4-yl]-1,3-dihydro-indol-2-one]	270 to 273 °C			
CCOCCn1cc2c(C3C(=O)Nc4ccc(Cl)cc43)nc(NCCCNC)nc2n1 (stereo not shown) (as salt: hydrochloride) [Example 215, 5-Chloro-3-[2-(2-ethoxy-ethyl)-6-(3-methylamino-propylamino)-2H-pyrazolo [3,4-d]pyrimidin-4-yl]-1,3-dihydro-indol-2-one]	275 to 277 °C			
CCCn1cc2c(C3C(=O)Nc4ccc(C#N)cc43)nc(Cl)nc2n1 (stereo not shown) [Example 183, 3-(6-Chloro-2-propyl-2H-pyrazolo [3,4-d]pyrimidin-4-yl)-2-oxo-2,3-dihydro-1H-indole-5-carbonitrile]	> 300 °C			
CN(C)CCNc1nc(C2C(=O)Nc3ccc(Br)cc32)c2cn(C3CCCC3)nc2n1 (stereo not shown) (as salt: TFA) [Example 370, 5-Bromo-3-[2-cyclopentyl-6-(2-dimethylamino-ethylamino)-2H-pyrazolo [3,4-d]pyrimidin-4-yl]-1,3-dihydro-indol-2-one]	190 to 192 °C			
CCCn1cc2c(C3C(=O)Nc4ccc(C)cc43)nc(NCCN(C)C)nc2n1 (stereo not shown) [Example 309, 3-[6-(2-Dimethylamino-ethylamino)-2-propyl-2H-pyrazolo[3,4-d]pyrimidin-4-yl]-5-methyl-1,3-dihydro-indol-2-one]		300 to 3000	300 to 3000	
CCCn1cc2c(C3C(=O)Nc4ccc(Br)cc43)nc(NC[C@H]3CCCO3)nc2n1 (stereo partly drawn) [Example 366, 5-Bromo-3-(2-propyl-6-{[(R)-1-(tetrahydro-furan-2-yl)methyl]-amino}-2H-pyrazolo[3,4-d]pyrimidin-4-yl)-1,3-dihydro-indol-2-one]		< 300	< 300	
COCCn1cc2c(C3C(=O)Nc4ccc(Br)cc43)nc(NCCC3CCCNC3)nc2n1 (stereo not shown) [Example 228, 5-Bromo-3-[2-(2-methoxy-ethyl)-6-(2-piperidin-3-yl-ethylamino)-2H-pyrazolo[3,4-d]pyrimidin-4-yl]-1,3-dihydro-indol-2-one]		< 300	< 300	
N#Cc1ccc2c(c1)C(c1nc(N3CCN(CCN4CCCC4)CC3)nc3nn(C4CCCC4)cc13)C(=O)N2 (stereo not shown) [Example 127, 3-{2-cyclopentyl-6-[4-(2-pyrrolidin-1-yl-ethyl)-piperazin-1-yl]-2H-pyrazolo[3,4-d]pyrimidin-4-yl}-2-oxo-2,3-dihydro-1H-indole-5-carbonitrile]		> 10000	< 300	
N#Cc1ccc2c(c1)C(c1nc(NCCCN3CCOCC3)nc3c1CCC3)C(=O)N2 (stereo not shown) [Example 340, 3-[2-(3-Morpholin-4-yl-propylamino)-6,7-dihydro-5H-cyclopentapyrimidin-4-yl]-2-oxo-2,3-dihydro-1H-indole-5-carbonitrile]		300 to 3000	300 to 3000	
N#Cc1ccc2c(c1)C(c1nc(NCc3ccc(C(F)(F)F)nc3)nc3nn(C4CCCC4)cc13)C(=O)N2 (stereo not shown) [Example 173, 3-{2-Cyclopentyl-6-[(6-trifluoromethyl-pyridin-3-ylmethyl)-amino]-2H-pyrazolo [3,4-d]pyrimidin-4-yl}-2-oxo-2,3-dihydro-1H-indole-5-carbonitrile]		< 300	< 300	
CCCn1cc2c(C3C(=O)Nc4ccc(Br)cc43)nc(NCCCNC)nc2n1 (stereo not shown) (as salt: hydrochloride) [Example 201, 5-Bromo-3-[6-(3-methylamino-propylamino)-2-propyl-2H-pyrazolo [3,4-d]pyrimidin-4-yl]-1,3-dihydro-indol-2-one hydrochloride]	271 to 273 °C			
N#Cc1ccc2c(c1)C(c1nc(N3CCN(CCc4cccs4)CC3)nc3nn(C4CCCC4)cc13)C(=O)N2 (stereo not shown) [Example 130, 3-{2-cyclopentyl-6-[4-(2-thiophen-2-yl-ethyl)-piperazin-1-yl]-2H-pyrazolo[3,4-d]pyrimidin-4-yl}-2-oxo-2,3-dihydro-1H-indole-5-carbonitrile]		> 10000	< 300	
O=C1Nc2ccc(F)cc2C1c1nc(Cl)nc2c1CCC2 (stereo not shown) [Example 315, 3-(2-Chloro-6,7-dihydro-5H-cyclopentapyrimidin-4-yl)-5-fluoro-1,3-dihydro-indol-2-one]		> 10000	> 10000	
O=C1Nc2ccc(Br)cc2C1c1nc(NCCN2CCOCC2)nc2c1CCC2 (stereo not shown) [Example 332, 5-Bromo-3-[2-(2-morpholin-4-yl-ethylamino)-6,7-dihydro-5H-cyclopentapyrimidin-4-yl]-1,3-dihydro-indol-2-one]			300 to 3000	IC50 (CDK5/GST-p25; numeric bounds): > 3000 nM
O=C1Nc2ccc(F)cc2C1c1nc(NCc2ccncc2)nc2c1CCC2 (stereo not shown) [Example 320, 5-Fluoro-3-{2-[(pyridin-4-ylmethyl)-amino]-6,7-dihydro-5H-cyclopentapyrimidin-4-yl}-1,3-dihydro-indol-2-one]				IC50 (CDK5/GST-p25; numeric bounds): > 3000 nM; IC50 (His6-GSK-3β; numeric bounds): > 3000 nM
Cn1cc2c(C3C(=O)Nc4ccc(Cl)cc43)ncnc2n1 (stereo not shown) [Example 83, 5-Chloro-3-(2-methyl-2H-pyrazolo[3,4-d]pyrimidin-4-yl)-1,3-dihydro-indol-2-one]		< 300	300 to 3000	

The next lines start with results.

melting point	IC50 (CDK5/GST-p25; class symbols) [nM]	IC50 (His6-GSK-3β; class symbols) [nM]	SMILES	also measured
184 to 186 °C			CCCn1cc2c(C3(F)C(=O)Nc4ccc(Br)cc43)ncnc2n1 (stereo not shown) [Example 383, 5-Bromo-3-fluoro-3-(2-propyl-2H-pyrazolo[3,4-d]pyrimidin-4-yl)-1,3-dihydroindol-2-one]	
267 °C (dec.)			CCCCCn1cc2c(C3C(=O)Nc4ccc(C(F)(F)F)cc43)nc(Cl)nc2n1 (stereo not shown)	
248 to 251 °C			COCCn1cc2c(C3C(=O)Nc4ccc(Br)cc43)nc(NCCC3CCNCC3)nc2n1 (stereo not shown) (as salt: hydrochloride) [Example 227, 5-Bromo-3-[2-(2-methoxy-ethyl)-6-(2-piperidin-4-yl-ethylamino)-2H-pyrazolo[3,4-d]pyrimidin-4-yl]-1,3-dihydro-indol-2-one]	
230 to 236 °C (dec.)			COC[C@H]1C[C@@H](n2cnc3c(C4C(=O)Nc5ccc(C#N)cc54)ncnc32)[C@H](O)[C@@H]1O (stereo partly drawn) [Example 29, 3-[9-((1R,2S,3R,4R)-2,3-Dihydroxy-4-methoxymethyl-cyclopentyl)-9H-purin-6-yl]-2-oxo-2,3-dihydro-1H-indole-5-carbonitrile]	
> 300 °C			Cn1cc2c(C3C(=O)Nc4ccc(Br)cc43)nc(Cl)nc2n1 (stereo not shown) [Example 300, 5-Bromo-3-(6-chloro-2-methyl-2H-pyrazolo[3,4-d]pyrimidin-4-yl)-1,3-dihydro-indol-2-one]	
	< 300	< 300	O=C1Nc2ccc(Br)cc2C1c1nc(NCc2ccncc2)nc2nn(C3CCCC3)cc12 (stereo not shown) [Example 180, 5-Bromo-3-{2-cyclopentyl-6-[(pyridin-4-ylmethyl)-amino]-2H-pyrazolo[3,4-d]pyrimidin-4-yl}-1,3-dihydro-1H-indol-2-one]	
	< 300	< 300	O=C1Nc2ccc([N+](=O)[O-])cc2C1c1ncnc2nn(C3CCCC3)cc12 (stereo not shown) [Example 33, 3-(2-Cyclopentyl-2H-pyrazolo[3,4-d]pyrimidin-4-yl)-5-nitro-1,3-dihydro-indol-2-one]	
	> 10000	< 300	N#Cc1ccc2c(c1)C(c1nc(Nc3cccnc3)nc3nn(C4CCCC4)cc13)C(=O)N2 (stereo not shown) [Example 169, 3-[2-Cyclopentyl-6-(pyridin-3-ylamino)-2H-pyrazolo [3,4-d]pyrimidin-4-yl]-2-oxo-2,3-dihydro-1H-indole-5-carbonitrile]	
		300 to 3000	CCCn1cc2c(C3C(=O)Nc4ccc(Br)cc43)nc(N[C@H]3CCNC3)nc2n1 (stereo partly shown) [Example 362]	IC50 (CDK5/GST-p25; numeric bounds): > 3000 nM
	< 300	< 300	Cn1cc2c(C3C(=O)Nc4ccc(Br)cc43)nc(NCCc3cccnc3)nc2n1 (stereo not shown) [Example 305, 5-Bromo-3-[2-methyl-6-(2-pyridin-3-yl-ethylamino)-2H-pyrazolo [3,4-d]pyrimidin-4-yl]-1,3-dihydro-indol-2-one]	
	> 10000	< 300	N#Cc1ccc2c(c1)C(c1nc(N3CCN(CCc4ccccn4)CC3)nc3nn(C4CCCC4)cc13)C(=O)N2 (stereo not shown) [Example 129, 3-{2-cyclopentyl-6-[4-(2-pyridin-2-yl-ethyl)-piperazin-1-yl]-2H-pyrazolo [3,4-d]pyrimidin-4-yl}-2-oxo-2,3-dihydro-1H-indole-5-carbonitrile]	
